Data on seven compounds can be found in patent US20250255301A1, “PESTICIDAL MIXTURES COMPRISING A PYRAZOLE COMPOUND” (BASF SE, priority 2019, published 2025).

What all share (assay type): cell-based
For one assay, the system named is Sclerotinia sclerotiorum. In words: Activity against Sclerotinia sclerotiorum in the microtiterplate test. Conditions: single active, 7 days after inoculation.
A further assay relates to Botrytis cinerea. The assay is described as follows: Activity against the grey mold Botrytis cinerea in the microtiterplate test. Conditions: single active, 7 days after inoculation. An excerpt: Synergism can be described as an interaction where the combined effect of two or more compounds is greater than the sum of the individual effects of each of the compounds. The presence of a synergistic effect in terms of percent control or efficacy, between two mixing partners (X and Y) can be calculated using the Colby equation (Colby, S. R., 1967, Calculating Synergistic and Antagonistic Responses in Herbicide Combinations, Weeds, 15, 20-22): The measured parameters were compared to the growth of the active compound-free control variant (100%) and the fungus-free blank value to determine the relative growth in % of the pathogens in the respective active compounds. These percentages were converted into efficacies. […] The expected efficacies of active compound mixtures were determined using Colby's formula [R. S. Colby, “Calculating synergistic and antagonistic responses of herbicide combinations”, Weeds 15, 20-22 (1967)] and compared with the observed efficacies. […] The stock solutions were mixed according to the ratio, pipetted onto a micro titer plate (MTP) and diluted with water to the stated concentrations. A spore suspension of Botrci cinerea in an aqueous biomalt or yeast-bactopeptone-sodiumacetate solution was then added. The plates were placed in a water vapor-saturated chamber at a temperature of 18° C.

The next assay relates to Rhynchosporium secalis. In words: Activity against Rhynchosporium secalis in the microtiterplate test. The following applies: single active, 63 ppm, 7 days after inoculation. An excerpt: Synergism can be described as an interaction where the combined effect of two or more compounds is greater than the sum of the individual effects of each of the compounds. The presence of a synergistic effect in terms of percent control or efficacy, between two mixing partners (X and Y) can be calculated using the Colby equation (Colby, S. R., 1967, Calculating Synergistic and Antagonistic Responses in Herbicide Combinations, Weeds, 15, 20-22): The measured parameters were compared to the growth of the active compound-free control variant (100%) and the fungus-free blank value to determine the relative growth in % of the pathogens in the respective active compounds. These percentages were converted into efficacies. […] The expected efficacies of active compound mixtures were determined using Colby's formula [R. S. Colby, “Calculating synergistic and antagonistic responses of herbicide combinations”, Weeds 15, 20-22 (1967)] and compared with the observed efficacies. […] The stock solutions were mixed according to the ratio, pipetted onto a micro titer plate (MTP) and diluted with water to the stated concentrations. A spore suspension of Rhynchosporium secalis in an aqueous biomalt or yeast-bactopeptone-glycerine or DOB solution was then added. […] Using an absorption photometer, the MTPs were measured at 405 nm 7 days after the inoculation.

The next assay relates to Cercospora sojina. The assay is described as follows: Activity against Cercospora sojina in the microtiter test. Conditions: single active, 7 days after inoculation. An excerpt: Synergism can be described as an interaction where the combined effect of two or more compounds is greater than the sum of the individual effects of each of the compounds. The presence of a synergistic effect in terms of percent control or efficacy, between two mixing partners (X and Y) can be calculated using the Colby equation (Colby, S. R., 1967, Calculating Synergistic and Antagonistic Responses in Herbicide Combinations, Weeds, 15, 20-22): The measured parameters were compared to the growth of the active compound-free control variant (100%) and the fungus-free blank value to determine the relative growth in % of the pathogens in the respective active compounds. These percentages were converted into efficacies. […] The expected efficacies of active compound mixtures were determined using Colby's formula [R. S. Colby, “Calculating synergistic and antagonistic responses of herbicide combinations”, Weeds 15, 20-22 (1967)] and compared with the observed efficacies. […] The stock solutions were mixed according to the ratio, pipetted onto a micro titer plate (MTP) and diluted with water to the stated concentrations. A spore suspension of Cercospora sojina in an aqueous biomalt or yeast-bactopeptone-sodiumacetate solution was then added. The plates were placed in a water vapor-saturated chamber at a temperature of 18° C. Using an absorption photometer, the MTPs were measured at 405 nm 7 days after the inoculation.

The next assay concerns Phytophthora infestans. Conditions: single active, 7 days after inoculation.
A further assay concerns Septoria tritici. In words: Activity against leaf blotch on wheat caused by Septoria tritici (microtiter plate). The following applies: single active, 7 days after inoculation. An excerpt:
Synergism can be described as an interaction where the combined effect of two or more compounds is greater than the sum of the individual effects of each of the compounds. The presence of a synergistic effect in terms of percent control or efficacy, between two mixing partners (X and Y) can be calculated using the Colby equation (Colby, S. R., 1967, Calculating Synergistic and Antagonistic Responses in Herbicide Combinations, Weeds, 15, 20-22): The measured parameters were compared to the growth of the active compound-free control variant (100%) and the fungus-free blank value to determine the relative growth in % of the pathogens in the respective active compounds. These percentages were converted into efficacies. […] The expected efficacies of active compound mixtures were determined using Colby's formula [R. S. Colby, “Calculating synergistic and antagonistic responses of herbicide combinations”, Weeds 15, 20-22 (1967)] and compared with the observed efficacies. […] The stock solutions were mixed according to the ratio, pipetted onto a micro titer plate (MTP) and diluted with water to the stated concentrations. A spore suspension of Septoria tritici in an aqueous biomalt or yeast-bactopeptone-glycerine or DOB solution was then added. The plates were placed in a water vapor-saturated chamber at a temperature of 18° C. Using an absorption photometer, the MTPs were measured at 405 nm 7 days after the inoculation.

For assay [1], the system named is Colletotrichum orbiculare. In words: Activity against Colletotrichum orbiculare in the microtiterplate test. The following applies: single active, 7 days after inoculation.

Read-outs that look alike come from different tables or passages of the source.

Take pyrapropoyne [reference compound]: the values for the Observed efficacy in the assay on Sclerotinia sclerotiorum (1 ppm) and in the assay with Botrytis cinerea (1 ppm) were 27% and 26%, respectively.
On to `N#Cc1ccc(Oc2ccc(C(F)(F)C(O)(Cn3ncnc3S)c3ccc(F)cc3F)nc2)cc1` (centres unmarked) [B.5)d), 4-[[6-[2-(2,4-difluorophenyl)-1,1-difluoro-2-hydroxy-3-(5-sulfanyl-1,2,4-triazol-1-yl)propyl]-3-pyridyl]oxy]benzonitrile], for which the Observed efficacy in the assay with Rhynchosporium secalis stood at 70%.
In the case of `COc1ccnc(C(=O)N[C@@H](C)C(=O)O[C@@H](C)C(c2ccc(F)cc2)c2ccc(F)cc2)c1OC(C)=O` [Florylpicoxamid, florylpicoxamid, reference compound], the results for the Observed efficacy in the assay with Cercospora sojina (0.25 ppm) and with Cercospora sojina (16 ppm) were 6% and 61%, respectively.
For the compound `Cc1cc(C(F)(F)F)nn1CC(=O)N1CCC(c2nc(C3=NOC(c4c(F)cccc4F)C3)cs2)CC1` (centres unmarked) [Oxathiapiproline, oxathiapiprolin, reference compound], the Observed efficacy in the assay on Phytophthora infestans (0.016 ppm) worked out at 0%; in the assay on Phytophthora infestans (0.063 ppm), 11%.
For the compound `CC(C)c1ccc(Cl)cc1CN(C(=O)c1c(C(F)F)nn(C)c1F)C1CC1` [Isoflucypram, isoflucypram, reference compound], the Observed efficacy with Botrytis cinerea (0.25 ppm) is recorded as 57%; with Septoria tritici (0.063 ppm), 40%.
Turning to `CON(C(=O)c1cn(C)nc1C(F)F)C(C)Cc1c(Cl)cc(Cl)cc1Cl` (centres unmarked) [Pydiflumetofen, pydiflumetofen, reference compound], the Observed efficacy in assay [1] (16 ppm) is reported as 59%; with Botrytis cinerea (0.063 ppm), 42%.
For the compound `CCN(C(=O)c1cnn(C(C)C(C)C)c1C)c1ccnnc1` (racemic) [Dimpropyridaz, 1-[(1 RS)-1,2-dimethylpropyl]-N-ethyl-5-methyl-N-pyridazin-4-yl-1H-pyrazole-4-carboxamide], the Observed efficacy was 12% with Rhynchosporium secalis; 0% in the assay on Sclerotinia sclerotiorum (0.25 ppm); 14% in assay [1] (63 ppm); 0% in the assay with Botrytis cinerea (0.063 ppm); 1% with Botrytis cinerea (0.25 ppm); 0% in the assay on Botrytis cinerea (1 ppm). The Observed efficacy came out at 0% with Cercospora sojina (0.25 ppm); 23% in the assay on Cercospora sojina (63 ppm); 0% in the assay with Phytophthora infestans (0.016 ppm); 4% in the assay on Phytophthora infestans (0.063 ppm); 5% with Septoria tritici (0.063 ppm); 7% in the assay with Septoria tritici (0.25 ppm).
